Reference: PMC10447463, “Data-mining unveils structure–property–activity correlation of viral infectivity enhancing self-assembling peptides” (Nature Communications, 2023)
Read-outs that look alike come from different tables or passages of the source.

Experiments:
[1] = ref sieste 2021 or Schilling2019, cited from earlier work
Text: Supplement 41467_2023_40663_MOESM7_ESM.zip/FigS17.csv, table | column: Conversion Rate / % ( from sieste 2021 or Schilling2019)

[2] = Turbidity, derived count rate of scattered light; format: physicochemical; settings: for Log Count Rate: log of derived count rate
Outline: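 One-day room-temperature aggregation at 1 mg/mL in PBS (pH 7.4) preceded measurement; samples then went into 1 mM KCl. Triplicates per sample, two independent experiments averaged.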

[3] = Zeta-potential measurement; format: physicochemical; settings: for Zeta-pot. / mV: zeta potential of peptide, Fig S15 source data
Outline: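 Samples: 1 mg/mL in PBS pH 7.4 (from DMSO), 1 d at RT, then diluted in 1 mM KCl immediately before measurement. Triplicates, two independent runs averaged.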

[4] = Conversion rate (CR) assay with fluorescamine; format: physicochemical; parameters: key to CR: % = 100−100×filtrate/original fluorescence intensity
Outline: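 Spectra: 64 scans, 2 cm^-1, lyophilized PNF (1 mg/mL source). CR = 100 − 100 × filtrate/original fluorescamine signal; triplicate, ± SD.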

[5] = previously reported peptides only
[6] = category 1 or 0 from count rate, key not given
[7] = derived count rate of scattered light
[8] = derived count rate of scattered light, mean, std deviation in next column
[9] = derived count rate of scattered light, mean, std deviation in separate column
[10] = Fig S8 panels A, C, asymmetric log errors
[11] = Fig S8 panels B, D, turbidity, derived count rate of scattered light
[12] = category 1 or 0 derived from the count rate, key not given
[13] = derived count rate from zeta measurement, mean
[14] = category derived from the zeta potential

Substance	Zeta Count Rate Category ([2]; category 1 / 0, no key given)	Zeta Count Rate Category [2, 6]	Zeta Count Rate / kcps [2, 7] [kcps]	Zeta Count Rate / kcps [2, 8] [kcps]	Zeta Count Rate / kcps [2, 9] [kcps]	Zeta Pot. / mV [3] [mV]	Zeta category ( +1 = if > 4 mV;-1 = if < -4 mV; 0 = -4mV to 4 mV) [3]	Zeta category ( +1 = if > 4 mV;-1 = if < -4 mV; 0 = -4mV to 4 mV) ([3]; category from zeta potential)	Zeta Pot. / mV ([3]; mean, Std Zeta in next column) [mV]	Zeta Pot. / mV ([3]; mean, Std in separate column) [mV]	Zeta-pot. / mV [3] [mV]	Conversion Rate / % ( from sieste 2021 or Schilling2019) [1] [%]	Zeta Count Rate Category ([2]; category 1/0, no key printed)	further results
CKIKQIINM [BL1]	1	1	9058	9058	9058	12.9	1 (+1 = if > 4 mV)	1 (+1 = if > 4 mV)	12.9	12.9	12.9	–	–	Conversion Rate / % ( from sieste 2021 or Schilling2019) [1, 5]: 45%
CKIKIQI [MG3b]	–	1	–	2432.9	2432.9	–	1 (+1 = if > 4 mV)	1 (+1 = if > 4 mV)	12.8	12.8	12.8	54	1	Log Count Rate [2, 10]: 3.386; Log Count Rate ([2]; Fig S8 panels B, D): 3.386; Count Rate [2, 11]: 2432.9; Zeta Count Rate Category [2, 12]: 1; Zeta Count Rate / kcps [2, 13]: 2432.9 kcps; Zeta Count Rate Category ([2]; key not given): 1; Zeta category ( +1 = if > 4 mV;-1 = if < -4 mV; 0 = -4mV to 4 mV) ([3]; FigS26): 1 (+1 = if > 4 mV); Zeta category ( +1 = if > 4 mV;-1 = if < -4 mV; 0 = -4mV to 4 mV) [3, 14]: 1 (+1 = if > 4 mV)
QCKFKQFFNM [CK11]	1	–	10384.7	10384.7	10384.7	13.67	1 (+1 = if > 4 mV)	–	13.67	13.67	13.67	–	–	Zeta Count Rate Category [2, 12]: 1; Conversion Rate / % [4]: 98.67%; Conversion Rate / % ([4]; fluorescamine assay): 98.67%; Zeta category ( +1 = if > 4 mV;-1 = if < -4 mV; 0 = -4mV to 4 mV) [3, 14]: 1 (+1 = if > 4 mV)
CKFKQFF [CK15]	0	–	2.567	2.567	2.567	11.56	1 (+1 = if > 4 mV)	–	11.56	11.56	11.56	–	–	Log Count Rate [2, 10]: 0.4099; Log Count Rate ([2]; Fig S8 panels B, D): 0.4099; Count Rate [2, 11]: 2.57; Zeta Count Rate Category [2, 12]: 0; Conversion Rate / % [4]: 90.05%; Conversion Rate / % ([4]; fluorescamine assay): 90.05%; Zeta category ( +1 = if > 4 mV;-1 = if < -4 mV; 0 = -4mV to 4 mV) [3, 14]: 1 (+1 = if > 4 mV)
KIKIKIQI [TG13]	1	1	999.1	999.1	–	6.97	1 (+1 = if > 4 mV)	1 (+1 = if > 4 mV)	6.97	–	6.97	–	–	Conversion Rate / % ( from sieste 2021 or Schilling2019) [1, 5]: 80%
CKIKQIINMWQ [MG5a / CK17]	1	1	8317	8317	8317	13.4	1 (+1 = if > 4 mV)	1 (+1 = if > 4 mV)	13.4	13.4	13.4	–	–	Conversion Rate / % ( from sieste 2021 or Schilling2019) [1, 5]: 50%; Log Count Rate [2, 10]: 3.92; Log Count Rate ([2]; Fig S8 panels B, D): 3.92; Count Rate [2, 11]: 8316.83; Zeta Count Rate / kcps [2, 13]: 8317 kcps; Zeta Count Rate Category ([2]; key not given): 1
CKIKQII [MG4a]	0	0	74.6	74.6	74.6	-3.83	0 (0 = -4mV to 4 mV)	0 (0 = -4mV to 4 mV)	-3.83	-3.83	-3.83	–	–	Conversion Rate / % ( from sieste 2021 or Schilling2019) [1, 5]: 55%; Log Count Rate [2, 10]: 1.873; Log Count Rate ([2]; Fig S8 panels B, D): 1.873; Count Rate [2, 11]: 74.6; Zeta Count Rate / kcps [2, 13]: 74.6 kcps; Zeta Count Rate Category ([2]; key not given): 0
QCKIKIQINMWQ [EF-C opt]	–	1	–	8271	8271	–	1 (+1 = if > 4 mV)	1 (+1 = if > 4 mV)	11.73	11.73	11.73	–	1	Log Count Rate [2, 10]: 3.918; Log Count Rate ([2]; Fig S8 panels B, D): 3.918; Count Rate [2, 11]: 8271.27; Conversion Rate / % [4]: 93.68%; Conversion Rate / % ([4]; fluorescamine assay): 93.68%
CKAKAQA [TM155]	–	1	–	362.7	362.7	–	-1 (-1 = if < -4 mV)	-1 (-1 = if < -4 mV)	-8.01	-8.01	-8.01	44	1	–
CEIEIQINM [TM144]	–	–	–	58.43	–	–	-1 (-1 = if < -4 mV)	–	-15.3	-15.3	-15.3	43	0	Zeta Count Rate / kcps [2, 13]: 58.43 kcps; Zeta Count Rate Category ([2]; key not given): 0
CSISIQINM [TM145]	–	–	–	3291	–	–	-1 (-1 = if < -4 mV)	–	-19.4	–	-19.4	86	1	–
RGDCKFKFQF [TM64/ CN15]	1	1	1338	1338	–	13.87	1 (+1 = if > 4 mV)	1 (+1 = if > 4 mV)	13.87	–	13.87	–	–	Conversion Rate / % ([4]; fluorescamine assay): 85.47%
CRFRFQF [CN10]	–	–	–	390.5	–	–	0 (0 = -4mV to 4 mV)	–	-2.097	–	-2.097	–	1	Conversion Rate / % ([4]; fluorescamine assay): 98.13%
CKIKIQINMWQ	–	–	–	–	–	–	–	–	–	–	–	–	–	Log10 Count Rate ([2]; Log10 of derived count rate of scattered light (turbidity)): 3.274; Count Rate / kcps ([2]; derived count rate of scattered light at 633 nm, 173°, from zeta-potential measurement, 0.1 mg/mL in 1 mM KCl after 1 d at 1 mg/mL in PBS, turbidity / microscopic aggregation, mean of triplicate): 1881 kcps; Log10 Count Rate ([2]; log10 of derived count rate of scattered light (turbidity)): 3.274; Log10 Count Rate ([2]; turbidity, Log10 of derived count rate of scattered light, Figure 3A source data): 3.274; CR / % ([4]; Fig. S7 panel B, conversion rate, fluorescamine assay): 89.1%; CR ([4]; conversion rate, fluorescamine assay): 89.15; Zeta-Pot. ([3]; zeta potential of peptide assemblies): 13.87; Zeta-Potential / mV ([3]; zeta-potential of peptide, source data of Figure 2C): 12.25 mV; Zeta-Potential / mV ([3]; zeta-potential of the peptide assemblies, mean, Figure 3A source data): 13.87 mV
KFKFKFQF [TG18]	1	1	1036	1036	–	15.2	1 (+1 = if > 4 mV)	1 (+1 = if > 4 mV)	15.2	–	15.2	–	–	Conversion Rate / % ( from sieste 2021 or Schilling2019) [1, 5]: 94%
KIKIQINM [JGB2]	–	1	–	262.1	262.1	–	1 (+1 = if > 4 mV)	1 (+1 = if > 4 mV)	8.51	8.51	8.51	64	1	–
CEIEIQI [AR2/ TM142]	–	–	–	51.97	–	–	-1 (-1 = if < -4 mV)	–	-26.1	-26.1	-26.1	59	0	Zeta Count Rate / kcps [2, 13]: 51.97 kcps; Zeta Count Rate Category ([2]; key not given): 0
